Here are results for four compounds from patent US20110236501A1, “INJECTABLE DUAL DELIVERY ALLOGRAPH BONE/POLYMER COMPOSITE FOR TREATMENT OF OPEN FRACTURES” (Vanderbilt University, priority 2007, published 2011).

In brackets after ≈: the same amount, converted by molar mass. Where two headings read alike, the source gives them in different places. A value given as a limit tells only on which side of the number the result lay.

Data set [1] can be described thus: In vitro release of PDGF-BB (I-125 labeling and ELISA). The data set is classed as physicochemical. The settings on record: for total release of PDGF-BB: PUR scaffold with 2 wt % glucose. How it is done: To enhance the release of PDGF-BB, 2 wt % glucose was added to the scaffolds. The release profile was monitored by two methods. In the first approach, PDGF-BB was radiolabeled with iodine-125 (I-125) and a gamma reading machine was used to monitor the release kinetics. Release of PDGF-BB was also measured by ELISA assay using the liquid releasates. Both methods yield similar release profiles (FIG. 13), characterized by a burst release on the first day. The ELISA assay detected a lower total release (around 65%, compared with around 85% for I-125 labeling method), which is possibly due to denaturation of some fraction of the released protein which cannot be detected by its antibody.
To mitigate the burst release, another strategy was adopted to achieve controlled release of PDGF-BB from polyurethane scaffolds. Heparin was bound to the surface of microparticles made from amine-terminated PLGA (average size 50 μm) using standard carbodiimide techniques. PDGF-BB was then loaded onto the particle surface through heparin binding. […] To enhance the stability of the protein on the PLGA particle surface, the particles were granulated by mixing the particles with a small amount of gelatin solution followed by forcing through a 48-mesh sieve to form 110-μm granules. The granules were then added to the hardener component before reacting with isocyanate to form PUR/G-PDGF-BB polyurethane scaffolds. The PDGF-BB release from the granules is similar to that of particles when detected by I-125 labeling (FIG. 14A), but lower when measured by ELISA (FIG. 14B).
(In general: In an ELISA, binding on a coated surface is turned into a signal by an enzyme label.)

Another data set relates to MC3T3 cells. Kind of data set: In vitro cell proliferation assay of released PDGF-BB. The data set is classed as cell-based. The following applies: released PDGF-BB vs fresh PDGF-BB. How it is done: To assess the in vitro bioactivity of released PDGF-BB from the polyurethane scaffolds, releasates at day 1, 3, and 7 from PUR/PDGF-BB and PUR/G-PDGF-BB scaffolds were lyophilized and reconstituted to the same PDGF-BB concentration. After MC3T3 cells attached to the 96-well plates, the serum content in the cell culture medium was decreased from 10% to 2.5%. At the same time, the reconstituted releasates were added at dosages of 3 and 10 ng/ml. Fresh PDGF-BB (i.e., not released from the scaffolds but used directly as received from the supplier) was the positive control. Cell numbers were measured at time points of 24 and 72 h by staining the DNA and measuring fluorescence on a plate reader. […] At the 72 h time point, a dose-dependent effect was observed, although it was not evident at the 24 h time point.

Data set [2] is described as follows: In vitro release of vancomycin from PUR. The data set is classed as physicochemical. How it is done: Methods: rhBMP-2 was purchased from R&D systems. V-FB was obtained by precipitation of vancomycin solution at pH 8. […] In vitro release experiment was carried out in PBS, with medium refreshed as indicated. […] The scaffolds were then tested in critical sized rat femoral segmental defects, contaminated or non-contaminated. After 4 or 8 weeks, the defects are harvested, and both the new bone formation and infection control were examined.

The nature of data set [3]: In vitro release of BSA-FITC / protein from PUR scaffolds. The data set is classed as physicochemical. The following applies: added in solution, after 21 days. How it is done: A scaffold of the present invention was prepared by one-shot reactive liquid molding of HDIt and hardener containing polyester triol and PEG. BSA-FITC was added to the hardener component prior to mixing with HDIt. Considering that proteins incorporate groups with active hydrogens (e.g., hydroxyl groups and amines), there is a concern that the protein will react with the polyisocyanate, resulting in damage to the protein. […] To protect the protein from reacting with the polyisocyanate, BSA-FITC was lyophilized with a varying amount of glucose excipient and then added to the hardener as a powder. […] The glucose dosage plays an important role in the release profile; the presence of 0.5% and 2% glucose increased the total amount released after 21 days and increased the initial burst release. Further increasing the glucose dosage to 5% decreased the total release.
To evaluate the effect of encapsulation protein into PLGA particles on the release kinetics from PUR scaffold, small pieces of PUR scaffold incorporated with BSA-FITC powder or PLGA particles encapsulated with BSA-FITC were incubated in a-MEM containing 1% BSA under 37° C. the medium was changed as indicated in FIG. 18. The amount of BSA-FITC was determined by emission fluorescence at 530 nm after excitation at 485 nm.

Data set [4] can be described thus: Solubility of tobramycin in polyester polyol. The data set is classed as physicochemical. How it is done:
Tobramycin was added as a powder to the hardener prior to reaction with the triisocyanate resin in order to minimize its reactivity with the reactive two-component polyurethane. Tobramycin's five primary amino groups otherwise cause it to react rapidly with isocyanates when in solution. Tobramycin is insoluble in polyester polyol, the primary component in the hardener; consequently the tobramycin remains in the solid phase during the chemical reaction. A loading of 8 wt-% was chosen to approximate the level of tobramycin delivered from the equivalent volume of PMMA cement beads, but higher loading can be achieved if necessary.

A further data set concerns S. aureus. The following applies: cited from earlier work.

With “PDGF-BB: Platelet-derived growth factor-BB”, the protein release entry in data set [1] (PDGF-BB added to PUR as a powder without the glucose excipient) was “negligible protein release”. Further, the entries for the “total release of PDGF-BB” value in data set [1] (ELISA) and in data set [1] (I-125 labeling) were “around 65%” and “around 85%”, respectively. The “decreased activity compared with the positive control” value in the data set on MC3T3 cells is 20%.
As for `CN[C@H](CC(C)C)C(=O)N[C@H]1C(=O)N[C@@H](CC(N)=O)C(=O)N[C@H]2C(=O)N[C@H]3C(=O)N[C@H](C(=O)N[C@H](C(=O)O)c4cc(O)cc(O)c4-c4cc3ccc4O)[C@H](O)c3ccc(c(Cl)c3)Oc3cc2cc(c3O[C@@H]2O[C@H](CO)[C@@H](O)[C@H](O)[C@H]2O[C@H]2C[C@](C)(N)[C@H](O)[C@H](C)O2)Oc2ccc(cc2Cl)[C@H]1O` [V-FB, vancomycin free base], the “duration of vancomycin release above the MIC for S. aureus” value in data set [2] is reported as “up to 8 weeks”; in data set [2] (listed as vancomycin), “over 8 weeks”.
As for “BSA-FITC: Bone serum albumin-fluorescein isothiocyanate”, the “release of BSA-FITC” value in data set [3] is given as < 20%.
In the case of `NC[C@H]1O[C@H](O[C@H]2[C@H](O)[C@@H](O[C@H]3O[C@H](CO)[C@@H](O)[C@H](N)[C@H]3O)[C@H](N)C[C@@H]2N)[C@H](N)C[C@@H]1O` [tobramycin], the “solubility in polyester polyol” value in data set [4] is reported as “insoluble”. In the data set on S. aureus, the minimum bactericidal concentration was 16 µg/mL (≈ 34.2 µM) and the minimum inhibitory concentration was 4 to 8 µg/mL.
